Results: patent publication US10322131B2, “Hydroxyacid derivatives, a process for their preparation and pharmaceutical compositions containing them” (LES LABORATOIRES SERVIER, priority 2015, dated 2019)
Where a name gives a salt, the structure may show the parent alone. Read-outs that look alike come from different tables or passages of the source.

Tests used:
[1] = target: Mcl-1 protein (Homo sapiens, UniProt Q07820); experiment: Inhibition of Mcl-1 by the fluorescence polarisation technique; format: binding
Chain of Mcl-1 protein (Q07820 whole entry): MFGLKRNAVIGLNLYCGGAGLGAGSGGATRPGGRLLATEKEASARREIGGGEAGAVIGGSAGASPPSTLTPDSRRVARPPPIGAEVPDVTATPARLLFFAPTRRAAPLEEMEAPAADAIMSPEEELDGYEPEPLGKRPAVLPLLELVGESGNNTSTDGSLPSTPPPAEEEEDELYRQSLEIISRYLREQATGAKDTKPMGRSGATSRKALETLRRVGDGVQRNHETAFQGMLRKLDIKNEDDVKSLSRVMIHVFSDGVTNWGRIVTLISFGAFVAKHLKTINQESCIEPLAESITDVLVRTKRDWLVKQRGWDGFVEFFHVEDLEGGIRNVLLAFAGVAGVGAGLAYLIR
Experimental: The relative binding potency of each compound was determined via Fluorescence Polarisation (FP). The method utilised a Fluorescein labelled ligand (Fluorescein-βAla-Ahx-A-REIGAQLRRMADDLNAQY-OH; mw 2,765) which binds to the Mcl-1 protein (such that Mcl-1 corresponds to the UniProtKB® primary accession number: Q07820) leading to an increased anisotropy measured in milli-polarisation (mP) units using a reader. The addition of a compound which binds competitively to the same site as the ligand will result in a greater proportion of unbound ligand in the system indicated by a decrease in mP units.
An 11 point serial dilution of each compound was prepared in DMSO and 2 μl transferred into flat bottomed, low binding, 384-well plate (final DMSO concentration 5%). 38 μl of buffer (10 mM 4-(2-hydroxyethyl)-1-piperazineethanesulfonic acid [HEPES], 150 mM NaCl, 0.05% Tween 20, pH 7.4), containing the Fluorescein labelled ligand (final concentration 1 nM) and Mcl-1 protein (final concentration 5 nM) was then added.
Assay plates were incubated ˜2 hours at r.t. before FP was measured on a Biomek Synergy2 reader (Ex. 528 nm, Em. 640 nm, Cut off 510 nm) and mP units calculated. The binding of increasing doses of test compound was expressed as a percentage reduction in mP compared to a window established between ‘5% DMSO only’ and ‘100% inhibition’ controls. 11-point dose response curves were plotted with XL-Fit software using a 4-Parameter Logistic Model (Sigmoidal Dose-Response Model) and the inhibitory concentrations that gave a 50% reduction in mP (IC50) were determined.

[2] = tested on: H929 cells; experiment: In vitro cytotoxicity (MTT) on H929 multiple myeloma tumour line; format: cell-based; settings: Microculture Tetrazolium Assay
Experimental: The cytotoxicity studies were carried out on the H929 multiple myeloma tumour line.
The cells are distributed onto microplates and exposed to the test compounds for 48 hours.
The cell viability is then quantified by a colorimetric assay, the Microculture Tetrazolium Assay (Cancer Res., 1987, 47, 939-942).

[3] = fluorescence polarisation test, Fluorescein labelled ligand 1 nM, Mcl-1 protein 5 nM, ~2 hours at r.t., read-out: IC50 (M) Mcl-1 FP
[4] = Homo sapiens, NCI-H929, exposed 48 hours

Row | Compound | IC50 [1, 3] | IC50 ([2]; exposed 48 hours) | IC50 [2, 4] | IC50 [1]
1 | Cc1c(-c2c(-c3ccc(F)cc3)sc3ncnc(OC(Cc4ccccc4OCc4ccnc(-c5ccc(OP(=O)(O)O)cc5)n4)C(=O)O)c23)ccc(OCCN2CCN(C)CC2)c1Cl [Example 57, 4-[4-({2-[(2R)-2-carboxy-2-{[(5Sa)-5-{3-chloro-2-methyl-4-[2-(4-methylpiperazin-1 yl)ethoxy]phenyl}-6-(4-fluorophehnyl)thieno[2,3-d]pyrimidin-4-yl]oxy}ethyl]phenoxy}methyl)pyrimidin-2-yl]phenyl phosphate disodium salt] | 4.6e-09 M | 22.7 nM |  | 
2 | Cc1c(-c2c(-c3ccc(F)cc3)sc3ncnc(OC(Cc4ccccc4OCc4ccnc(-c5ccc(OCC(O)CO)cc5)n4)C(=O)O)c23)ccc(OCCN2CCN(C)CC2)c1Cl [Example 15, (2R)-2-{[(5Sa)-5-{3-chloro-2-methyl-4-[2-(4-methylpiperazin-1-yl)ethoxy]phenyl}-6-(4-fluorophehenyl)thieno[2,3-d]pyrimidin-4-yl]oxy}-3-[2-({2-[4-(2,3-dihydroxypropoxy)phenyl]pyrimidin-4-yl}methoxy)phenyl]propanoic acid] | 2.75e-09 M |  | 3.59 nM | 
3 | COCCN(CCOC)C(=O)OCc1cccc(-c2nccc(COc3ccccc3CC(Oc3ncnc4sc(-c5ccc(F)cc5)c(-c5ccc(OCCN6CCN(C)CC6)c(Cl)c5C)c34)C(=O)O)n2)c1 [Example 45, (2R)-3-[2-({2-[3-({[bis(2-methoxyethyl)carbamoyl]oxy}methyl)phenyl]pyrimidin-4-yl}methoxy)phenyl]-2-{[(5Sa)-5-{3-chloro-2-methyl-4-[2-(4-methylpiperazin-1-yl)ethoxy]phenyl}-6-(4-fluorophenyl)thieno[2,3-d]pyrimidin-4-yl]oxy}propanoic acid] | 3.2e-09 M |  | 4.58 nM | 
4 | Cc1c(-c2c(-c3ccc(F)cc3)sc3ncnc(OC(Cc4ccccc4OCc4ccnc(-c5cccc(COC(=O)NCCN6CCCC6)c5)n4)C(=O)O)c23)ccc(OCCN2CCN(C)CC2)c1Cl [Example 44, (2R)-2-{[(5Sa)-5-{3-chloro-2-methyl-4-[2-(4-methylpiperazin-1-yl)ethoxy]phenyl}-6-(4-fluorophenyl)thieno[2,3-d]pyrimidin-4-yl]oxy}-3-{2-[(2-{3-[({[2-(pyrrolidin-1-yl)ethyl]carbamoyl}oxy)methyl]phenyl}pyrimidin-4-yl)methoxy]phenyl}propanoic acid] | 3.7e-09 M |  | 28.7 nM | 
5 | Cc1c(-c2c(-c3ccc(F)cc3)sc3ncnc(OC(Cc4ccccc4OCc4ccnc(-c5cccc(OP(=O)(O)O)c5)n4)C(=O)O)c23)ccc(OCCN2CCN(C)CC2)c1Cl [Example 28, (2R)-2-{[(5Sa)-5-{3-chloro-2-methyl-4-[2-(4-methylpiperazin-1-yl)ethoxy]phenyl}-6-(4-fluorophenyl)thieno[2,3-d]pyrimidin-4-yl]oxy}-3-[2-({2-[3-(phosphonooxy)phenyl]pyrimidin-4-yl}methoxy)phenyl]propanoic acid] |  |  | 48.4 nM | 4.15e-09 M

The next lines start with results.

Row | IC50 [1, 3] | Compound | IC50 ([2]; exposed 48 hours) | IC50 [2, 4] | IC50 [1]
6 | 1.09e-08 M | Cc1c(-c2c(-c3ccc(F)cc3)sc3ncnc(OC(Cc4ccccc4OCc4ccnc(-c5ccccc5COCCO)n4)C(=O)O)c23)ccc(OCCN2CCN(C)CC2)c1Cl [Example 10, (2R)-2-{[(5Sa)-5-{3-chloro-2-methyl-4-[2-(4-methylpiperazin-1-yl)ethoxy]phenyl}-6-(4-fluorophenyl)thieno[2,3-d]pyrimidin-4-yl]oxy}-3-{2-[(2-{2-[(2-hydroxyethoxy)methyl]phenyl}pyrimidin-4-yl)methoxy]phenyl}propanoic acid] |  | 2.79 nM | 
7 | 4.25e-09 M | Cc1c(-c2c(-c3ccc(F)cc3)sc3ncnc(OC(Cc4ccccc4OCc4ccnc(-c5cccc(COCCO)c5)n4)C(=O)O)c23)ccc(OCCN2CCN(C)CC2)c1Cl [Example 12, (2R)-2-{[(5Sa)-5-{3-chloro-2-methyl-4-[2-(4-methylpiperazin-1-yl(ethoxy]phenyl}-6-(4-fluorophenyl)thieno[2,3-d]pyrimidin-4-yl]oxy}-3-{2-[(2-{3-[(2-hydroxyethoxy)methyl]phenyl}pyrimidin-4-yl)methoxy]phenyl}propanoic acid] |  | 3.82 nM | 
